Assay results reported in paper PMC11148080, “Ru(II)-based complexes containing 2-thiouracil derivatives suppress liver cancer stem cells by targeting NF-κB and Akt/mTOR signaling” (Cell Death Discovery, 2024).
pIC50: −log10 of the molar value.

Columns and labels:
[1] = test system: A549; experiment: Alamar Blue cytotoxicity; format: cell-based, human; details: for pIC50: A549, 72 h
Experimental: (§1) The Alamar Blue assay was used to measure cell viability, as previously described. Adherent cells were seeded in 96-well plates at a density of 7 × 10^3 cells per well, and suspended cells were seeded at 3 × 10^4 cells per well. Drugs were added to each well after overnight incubation for adherent cells or immediately after seeding for suspension cells, and incubation continued for an additional 72 h. The positive control included doxorubicin (Laboratorio IMA S.A.I.C., Buenos Aires, Argentina). Four hours (for cell lines) or 24 h (for primary cultures) before the end of incubation, 20 μL of resazurin (30 μM) (Sigma‒Aldrich Co. St. Louis, MO, USA) was added to each well. The absorbance at 570 and 600 nm was measured using a SpectraMax 190 microplate reader (Molecular Devices, Sunnyvale, CA, USA).

[2] = test system: HSC-3; experiment: Alamar Blue cytotoxicity; format: cell-based, human; details: for pIC50: HSC-3, 72 h
Experimental: as §1

[3] = test system: NB4; experiment: Alamar Blue cytotoxicity; format: cell-based, human; details: for pIC50: NB4, 72 h
Experimental: as §1

[4] = test system: SCC-25; experiment: Alamar Blue cytotoxicity; format: cell-based, human; details: for pIC50: SCC-25, 72 h
Experimental: as §1

[5] = test system: SCC-9; experiment: Alamar Blue cytotoxicity; format: cell-based, human; details: for pIC50: SCC-9, 72 h
Experimental: as §1

[6] = test system: SCC4; experiment: Alamar Blue cytotoxicity; format: cell-based, human; details: for pIC50: SCC4, 72 h
Experimental: as §1

[7] = test system: THP-1; experiment: Alamar Blue cytotoxicity; format: cell-based, human; details: for pIC50: THP-1, 72 h
Experimental: as §1

[8] = test system: HepG2 cells; experiment: CD133 and CD44 expression by flow cytometry; format: cell-based, human; details: 24 h; for percentage of HepG2 CD133-positive cells: 8 μM complex 1 or 6 μM complex 2
Experimental: To stain the cell surface proteins, the cells were washed with an incubation buffer (0.5% bovine serum albumin in PBS), and then antibodies were added and incubated for 1 h at room temperature. The cells were then washed with PBS, and the fluorescence signal was measured by flow cytometry. CD133 and CD44 were quantified in YO-PRO-1 (Sigma‒Aldrich Co.) negative cells.
For all flow cytometry analyses, cellular fluorescence was measured using a BD LSRFortessa cytometer, BD FACSDiva software (BD Biosciences) and FlowJo software 10 (FlowJo LLC; Ashland, OR, USA). A minimum of 10,000 events were obtained per sample for intracellular staining, and a minimum of 30,000 events per sample were acquired for cell surface protein staining. Doublets were removed using FSC-A vs FCS-H and SCC-A vs SCC-H. Cellular debris was excluded from the analysis.

[9] = test system: HepG2 tumorspheres; experiment: HepG2 tumorspheres; format: cell-based, human; details: for HepG2 tumorsphere growth: 3D tumorspheres; for cell death in HepG2 tumorspheres (AO/PI): 48 h, 10 μM complex 1, 5 μM complex 2
Experimental: HepG2 cells were seeded at a low cell density (1000 cells/well in 2 mL) in 24-well low-adhesion plates (Corning, USA) using serum-free DMEM-F12 supplemented with 20 ng/mL EGF (PeproTech, USA), 20 ng/mL bFGF (PeproTech, USA), and B27 supplement (Invitrogen, Carlsbad, CA, USA). After 5 days of incubation (to allow spheroid formation), the cells were treated with 20, 10, 5, 2.5 or 1.25 µM of each complex. The cells were photographed after 0, 24, and 48 h of treatment using an optical microscope (Leica, DMI8). In a new set of experiments, cells were treated with 10 µM complex 1 or 5 µM complex 2 for 48 h, stained with acridine orange (1 μg/mL) plus PI (1 μg/mL) and analyzed by a Leica TCS SP8 confocal microscope (Leica Microsystems, Wetzlar, HE, Germany).

[10] = test system: HepG2 cells; experiment: Annexin V-FITC/PI apoptosis detection; format: cell-based, human; details: for apoptosis (annexin V-FITC+ cells): HepG2, 72 h, control 4.8%; for percentage of necrotic cells: 24, 48, 72 h
Experimental: For apoptosis detection, cell viability was quantified using Annexin V-FITC/PI (FITC Annexin V Apoptosis Detection Kit I, BD Biosciences, San Jose, CA, USA) according to the manufacturer’s instructions. The cells were also stained with rhodamine 123 (5 μg/mL, Sigma Aldrich Co.) for 15 min at 37 °C in the dark to assess the mitochondrial transmembrane potential. After the cells were washed, they were incubated in saline for 30 min in the dark at 37 °C and analyzed by flow cytometry. For all flow cytometry analyses, cellular fluorescence was measured using a BD LSRFortessa cytometer, BD FACSDiva software (BD Biosciences) and FlowJo software 10 (FlowJo LLC; Ashland, OR, USA). A minimum of 10,000 events were obtained per sample for intracellular staining, and a minimum of 30,000 events per sample were acquired for cell surface protein staining. Doublets were removed using FSC-A vs FCS-H and SCC-A vs SCC-H. Cellular debris was excluded from the analysis.

[11] = test system: HepG2 cells; experiment: PARP (Asp214) cleavage by flow cytometry; format: cell-based, human; details: HepG2, 24 h; 8 μM complex 1, 6 μM complex 2
Experimental: To stain intracellular proteins, the cells were harvested and resuspended in 0.5-1 mL of 4% formaldehyde for 10 min at 37 °C. The tube was then placed on ice for 1 min, after which the cells were prechilled and permeabilized using a sequence of 100% (30 min) to 90% (30 min) methanol with gentle mixing. After washing with incubation buffer (0.5% bovine serum albumin in PBS), primary antibodies were added and incubated for 1 h at room temperature. Finally, the cells were washed with PBS, and flow cytometry was used to measure cell fluorescence.

[12] = test system: HepG2 cell xenografts; experiment: HCC tumor growth xenograft model; format: in vivo, C.B-17 SCID mice; details: 21 days; for mean tumor weight: negative control 981 mg
Experimental: A total of 48 C.B-17 SCID mice (male and female, 20–25 g) were obtained from the FIOCRUZ-BA animal facility (Salvador, Bahia, Brazil) in accordance with experimental methods authorized by the local Animal Ethics Committee (#22/2021). All mice were fed a standard pellet diet (food and water available ad libitum) and housed in an artificially lit room (12 h dark/light cycle).
HepG2 cells (10^7 cells/500 μL) were implanted subcutaneously into the left front armpit of mice as previously described. The mice were administered intraperitoneally (200 μL/animal) once a day for 3 weeks. […] The animals were euthanized with an anesthetic overdose (thiopental, 100 mg/kg) 1 day after treatment, and the tumors were removed, weighed, and processed for histological examination.

F[P-](F)(F)(F)(F)F.O=c1cc[nH]c([S][Ru+])n1.c1ccc(-c2ccccn2)nc1.c1ccc(P(c2ccccc2)c2ccccc2)cc1.c1ccc(P(c2ccccc2)c2ccccc2)cc1 [Complex 1, trans-[Ru(2TU)(PPh3)2(bipy)]PF6]
pIC50 [1]: 4.76 | pIC50 [2]: 5.08 | pIC50 [3]: 5.32 | pIC50 [4]: 5.12 | pIC50 [5]: 5.36 | pIC50 [6]: 5.32 | pIC50 [7]: 5.32 | percentage of HepG2 CD133-positive cells [8]: reduced | HepG2 tumorsphere growth [9]: reduced | cell death in HepG2 tumorspheres (AO/PI) [9]: caused cell death | apoptosis (annexin V-FITC+ cells) ([10]; 2 µM): 9.0% | apoptosis (annexin V-FITC+ cells) ([10]; 4 µM): 48.9% | apoptosis (annexin V-FITC+ cells) ([10]; 8 µM): 76.1% | percentage of necrotic cells ([10]; HepG2): no significant increase | PARP (Asp214) cleavage [11]: increased levels | tumor inhibition ([12]; 2 mg/kg i.p. once a day): 35.3% | mean tumor weight ([12]; 2 mg/kg i.p. once a day): 635 mg | tumor inhibition ([12]; 4 mg/kg i.p. once a day): 53.6% | mean tumor weight ([12]; 4 mg/kg i.p. once a day): 455 mg

COc1cccc2c1C(=O)c1c(O)c3c(c(O)c1C2=O)C[C@@](O)(C(=O)CO)C[C@@H]3O[C@H]1C[C@H](N)[C@H](O)[C@H](C)O1 [Doxorubicin]
Selectivity index ([1]; IC50 BJ/IC50 A549): 0.79 | Selectivity index ([1]; IC50 MRC-5/IC50 A549): 0.72 | Selectivity index ([1]; IC50 PBMC/IC50 A549): 0.57 | pIC50 ([2]; Homo sapiens): 6.16 | Selectivity index ([2]; IC50 BJ/IC50 HSC-3): 2.68 | Selectivity index ([2]; IC50 MRC-5/IC50 HSC-3): 2.46 | Selectivity index ([2]; IC50 PBMC/IC50 HSC-3): 1.93 | pIC50 ([3]; Homo sapiens, NB-4): 7.05 | Selectivity index ([3]; IC50 BJ/IC50 NB4): 20.56 | Selectivity index ([3]; IC50 MRC-5/IC50 NB4): 18.89 | Selectivity index ([3]; IC50 PBMC/IC50 NB4): 14.78 | pIC50 ([4]; Homo sapiens): 5.84 | Selectivity index ([4]; IC50 BJ/IC50 SCC-25): 1.28 | Selectivity index ([4]; IC50 MRC-5/IC50 SCC-25): 1.18 | Selectivity index ([4]; IC50 PBMC/IC50 SCC-25): 0.92 | pIC50 ([5]; Homo sapiens): 6.00 | Selectivity index ([5]; IC50 BJ/IC50 SCC-9): 1.85 | Selectivity index ([5]; IC50 MRC-5/IC50 SCC-9): 1.70 | Selectivity index ([5]; IC50 PBMC/IC50 SCC-9): 1.33 | pIC50 ([6]; Homo sapiens, SCC-4): 5.74 | Selectivity index ([6]; IC50 BJ/IC50 SCC4): 1.03 | Selectivity index ([6]; IC50 MRC-5/IC50 SCC4): 0.94 | Selectivity index ([6]; IC50 PBMC/IC50 SCC4): 0.74 | pIC50 ([7]; Homo sapiens): 6.85 | Selectivity index ([7]; IC50 BJ/IC50 THP-1): 13.21 | Selectivity index ([7]; IC50 MRC-5/IC50 THP-1): 12.14 | Selectivity index ([7]; IC50 PBMC/IC50 THP-1): 9.50 | apoptosis ([10]; HepG2, DOX 1 μM, positive control): also led to apoptosis | tumor inhibition ([12]; 1 mg/kg i.p. once a day): 32.2% | mean tumor weight ([12]; 1 mg/kg i.p. once a day): 665 mg

Cc1cc(=O)nc([S][Ru+])[nH]1.F[P-](F)(F)(F)(F)F.c1ccc(-c2ccccn2)nc1.c1ccc(P(c2ccccc2)c2ccccc2)cc1.c1ccc(P(c2ccccc2)c2ccccc2)cc1 [Complex 2, trans-[Ru(6m2TU)(PPh3)2(bipy)]PF6]
pIC50 [1]: 4.98 | pIC50 [2]: 5.26 | pIC50 [3]: 5.28 | pIC50 [4]: 5.44 | pIC50 [5]: 5.60 | pIC50 [6]: 5.46 | pIC50 [7]: 5.19 | percentage of HepG2 CD44high cells ([8]; 6 μM complex 2): reduced | percentage of HepG2 CD133-positive cells [8]: reduced | HepG2 tumorsphere growth [9]: reduced | cell death in HepG2 tumorspheres (AO/PI) [9]: caused cell death | apoptosis (annexin V-FITC+ cells) ([10]; 1.5 µM): 9.1% | apoptosis (annexin V-FITC+ cells) ([10]; 3 µM): 40.7% | apoptosis (annexin V-FITC+ cells) ([10]; 6 µM): 76.9% | percentage of necrotic cells ([10]; HepG2): no significant increase | PARP (Asp214) cleavage [11]: increased levels | tumor inhibition ([12]; 2 mg/kg i.p. once a day): 63.6% | mean tumor weight ([12]; 2 mg/kg i.p. once a day): 358 mg | tumor inhibition ([12]; 4 mg/kg i.p. once a day): 65.4% | mean tumor weight ([12]; 4 mg/kg i.p. once a day): 340 mg
